Source: paper PMC5615103 (Toxicology Reports, 2017)
Entries after “also recorded” stand apart in the source; their conditions may differ. Read-outs that look alike come from different tables or passages of the source. Marks after values point to notes of the source that are not given here.

Tests used:
[1] = average plasma maximum concentration; type: in vivo, humans; conditions: human
[2] = test system: HepG2 cells; assay: HepG2 viability; type: cell-based, human; conditions: 1 μg/mL LPS, 48 h; for enhanced cell death in HepG2 cells on co-exposure with LPS: mono- and co-cultures with THP-1 monocytes, 25 μM TVX/LVX, 20 μM KC/FC; for synergy with LPS in co-culture with THP-1 monocytes: co-culture HepG2 + THP-1 monocytes
[3] = cited from earlier work; for DILI classification (a) LTKB class: Liver Toxicity Knowledge Base, ref Chen et al. [34]; for DILI classification (b) positive or negative for DILI: ref Xu et al. [33]; for iDILI/non-iDILI: selected by literature research, ref [30], [4], [8], [31], [32]; for FDA status: FDA-approved labels, ref DailyMed
[4] = WST-1 dose-response cytotoxicity in THP-1 monocytes; type: cell-based, human; conditions: human, THP-1 monocytes
[5] = test system: HepG2 cells; assay: HepG2 viability; type: cell-based, human; conditions: 3-5 × 10^5 THP-1 monocytes, no stimulus; same concentrations
[6] = test system: HepG2 cells; assay: WST-1 dose-response cytotoxicity in HepG2 monoculture; type: cell-based, human; conditions: for EC80 (concentration at which 80% of the cells are still viable) / EC50: HepG2, 24 h; for EC80 (concentration at which 80% of the cells are still viable): WST-1; for EC50: Homo sapiens
[7] = as above; type: cell-based, human; conditions: human, HepG2 cells (monoculture)
[8] = test system: THP-1 monocytes; assay: WST-1 dose-response cytotoxicity in THP-1 monocytes; type: cell-based, human; conditions: for EC50: Homo sapiens, THP-1, 24 h; for EC80 (concentration at which 80% of the cells are still viable): THP-1 monocytes, 24 h, WST-1
[9] = human plasma, cited from earlier work
[10] = test system: HepG2 cells; assay: HepG2 viability; type: cell-based, human; conditions: 10 ng/mL TNF, 24 h; for change of the TNF-dependent synergistic effect by addition of THP-1 monocytes: co-culture HepG2 + THP-1 monocytes; for synergistic effect (enhanced cellular death) on co-exposure with TNF: HepG2 monoculture, 32 μM TGZ/RGZ, 25 μM TVX/LVX, 125 μM DcL/ASS, 20 μM KC/FC
[11] = test system: HepG2 cells; assay: HepG2 monoculture, increasing drug concentrations with or without TNF, WST-1; type: cell-based, human; conditions: 24 h; for TNF-dependent synergistic effect at increasing drug concentrations: with vs without 10 ng/mL TNF
[12] = test system: HepG2 cells; assay: Morphology of HepG2 cell cultures; type: cell-based, human; conditions: 24 h; for alterations in the morphology of HepG2 cell cultures: 25 μM TVX or 125 μM DcL + 10 ng/mL TNF

Row | SMILES | Cmax [1] [µM] | enhanced cell death in HepG2 cells on co-exposure with LPS [2] | DILI classification (a) LTKB class [3] | DILI classification (b) positive or negative for DILI [3] | iDILI/non-iDILI [3] | influence of higher THP-1 monocyte number on the effect in co-culture [5] | EC80 (concentration at which 80% of the cells are still viable) [6] [µM] | EC50 [6] [µM] | FDA status [3] | EC50 [8] [µM] | EC80 (concentration at which 80% of the cells are still viable) [8] [µM] | synergistic effect (enhanced cellular death) on co-exposure with TNF [10] | further results
1 | OC(Cn1cncn1)(Cn1cncn1)c1ccc(F)cc1F [FC, Fluconazole] | 882 | did not show any relevant effects | Most DILI-concern | positive |  |  |  |  |  |  |  |  | 
2 | C[C@H]1COc2c(N3CCN(C)CC3)c(F)cc3c(=O)c(C(=O)O)cn1c23 [LVX, Levofloxacin] | 1580 | did not show any relevant effects |  | negative |  |  |  |  |  |  |  |  | 
3 | CN(CCOc1ccc(CC2SC(=O)NC2=O)cc1)c1ccccn1 (centres unmarked) [RGZ, Rosiglitazone] | 104 |  |  | negative | Non-iDILI | only negligible effects |  |  |  |  |  |  | cytotoxicity at 24 h, 32 µM [4]: 10%
4 | CC(=O)N1CCN(c2ccc(OCC3COC(Cn4ccnc4)(c4ccc(Cl)cc4Cl)O3)cc2)CC1 (centres unmarked) [KC, Ketoconazole] | 794 | significantly enhanced cell death | Most DILI-concern |  | iDILI | enhanced by higher numbers of immune cells | 18 | 24 | BBW | 12 | 7 |  | viability at 24 h, 20 μM [7]: ~80%; synergy with LPS in co-culture with THP-1 monocytes [2]: showed a synergy only in the presence of both; viability at 24 h, 20 μM [4]: ~20%; Cmax ([9]; ref Huang et al. [35]): 4.22** μg/mL; change of the TNF-dependent synergistic effect by addition of THP-1 monocytes [10]: compensated in the co-culture system
5 | CC(=O)Oc1ccccc1C(=O)O [ASS, Acetylsalicylic acid] | 552 |  |  | negative | Non-iDILI |  |  |  |  |  |  |  | Cmax ([9]; commonly recommended therapeutic doses, ref Xu et al. [33]): 1.00 µg/mL
6 | O=C(O)Cc1ccccc1Nc1c(Cl)cccc1Cl [DcL, Diclofenac] | 744 |  | Most DILI-concern | positive |  | enhanced by higher numbers of immune cells | 604 | 775 |  | 76 | 30 | stronger than in the case of TGZ and KC | cytotoxicity / metabolic activity at the used concentration ([6]; HepG2, same concentration as in co-culture experiments, 24 h): no cytotoxicity; also recorded: not affected; viability at 24 h, 125 μM [7]: ~100%; viability at 24 h, 125 μM [4]: ~30%; doses necessary to elicit enhanced toxicities (onset of synergy with TNF) ([11]; 10 ng/mL TNF): > 50 µM; synergistic effect when co-exposed with TNF ([11]; drug 50 μM, 10 ng/mL TNF): not able to induce a synergistic effect; TNF-dependent synergistic effect at increasing drug concentrations [11]: stronger than those of TGZ and KC; change of the TNF-dependent synergistic effect by addition of THP-1 monocytes [10]: compensated in the co-culture system; alterations in the morphology of HepG2 cell cultures [12]: pronounced hepatocellular injury; morphology of HepG2 cells ([12]; selected concentration (125 μM), drug alone): morphological changes
7 | Cc1c(C)c2c(c(C)c1O)CCC(C)(COc1ccc(CC3SC(=O)NC3=O)cc1)O2 (centres unmarked) [TGZ, Troglitazone] | 639 |  | Most DILI-concern | positive | iDILI | enhanced at higher THP-1 cell numbers | 34 | 40 | WDN | 42 | 27 | synergy | viability at 24 h, 32 μM [7]: ~85%; viability at 24 h, 32 μM [4]: ~70%
8 | N[C@@H]1[C@H]2CN(c3nc4c(cc3F)c(=O)c(C(=O)O)cn4-c3ccc(F)cc3F)C[C@@H]12 [TVX, Trovafloxacin] | 408 | significantly enhanced cell death |  |  | iDILI |  | 100 | 370 | WDN | 60 | 23 | stronger than in the case of TGZ and KC | viability at 24 h, 25 μM [7]: ~92%; synergy with LPS in the HepG2 monoculture ([2]; HepG2 monoculture): showed a synergy; synergy with LPS in co-culture with THP-1 monocytes [2]: not intensified by immune cells; viability at 24 h, 25 μM [4]: ~76%; TNF-dependent synergistic effect at increasing drug concentrations [11]: dose-dependently increased; alterations in the morphology of HepG2 cell cultures [12]: pronounced hepatocellular injury
